Consider two molecules from patent US11505783B2, “Differentiation of human embryonic stem cells” (Janssen Biotech, Inc., priority 2007, dated 2022).

Where two headings read alike, the source gives them in different places.

The subject of experiment [1] is human embryonic stem cell line H1. The settings on record: end of stage 5, real-time PCR. The procedure:
(§1) Cells of the human embryonic stem cell line H1, at passage 44 were cultured on […]™ coated dishes (1:30 dilution) and exposed to DMEM/F12 medium supplemented with 0.5% FBS, and 100 ng/ml Activin-A (R&D Systems, MN) plus 20 ng/ml WNT-3a (Catalog #1324-WN-002, R&D Systems, MN), for two days followed by treatment with DMEM/F12 media supplemented with 2% FBS and 100 ng/ml Activin-A (AA) for an additional two days. Next the cultures were treated with DMEM/F12+2% FBS+20 ng/ml FGF7+0.25 μm Cyclopamine-KAAD (#239804, Calbiochem, CA) for three days followed by four day incubation in DMEM/F12+1% B27 (Invitrogen, CA)+20 ng/ml FGF7+0.25 μm Cyclopamine-KAAD+2 μm Retinoic acid (RA) (Sigma, MO).
Next, cells were cultured in DMEM/F12+1% B27 (Invitrogen, CA)+50 ng/ml Exendin-4 (Sigma, MO)+1 μm DAPT (Calbiochem, CA) for six days followed by additional three days incubation in DMEM/F12+1% B27 (Invitrogen, CA)+50 ng/ml Exendin-4 (Sigma, MO)+50 ng/ml IGF (Peprotech, N.J.)+50 ng/ml HGF (R&D Systems, MN). Some of the cultures were treated with 1 μM of TGF-B receptor I kinase inhibitor (2-(3-(6-Methylpyridin-2-yl)-1H-pyrazol-4-yl)-1,5-naphthyridine) (an inhibitor of activin receptor-like kinase 5, #616452, Calbiochem, CA) at stage 4, stage 5, or stages 4 and 5.
On the technique in general: Quantitative PCR measures a nucleic acid by following its amplification.

Experiment [2] shares this test system. The settings on record: 1-10 μm at stages 4 and 5; end of stages 4 to 5; compared to controls (standard treatment). On the procedure: Next the cultures were treated with DMEM/F12+2% FBS+20 ng/ml FGF7+0.25 μm Cyclopamine-KAAD (#239804, Calbiochem, CA) for three days followed by four day incubation in DMEM/F12+1% B27 (Invitrogen, CA)+20 ng/ml FGF7+0.25 μm Cyclopamine-KAAD+2 μm Retinoic acid (RA) (Sigma, MO).
Next, cells were cultured in DMEM/F12+1% B27 (Invitrogen, CA)+50 ng/ml Exendin-4 (Sigma, MO)+1 μm DAPT (Calbiochem, CA) for six days followed by additional three days incubation in DMEM/F12+1% B27 (Invitrogen, CA)+50 ng/ml Exendin-4 (Sigma, MO)+50 ng/ml IGF (Peprotech, N.J.)+50 ng/ml HGF (R&D Systems, MN).

Experiment [3] has the same test system. The settings on record: end of stage 5, real-time PCR. The procedure:
as §1, with “51” for “44”
Next, the cells were cultured in DMEM/F12+1% B27 (Invitrogen, CA)+50 ng/ml Exendin-4 (Sigma, MO)+1 μm DAPT (Calbiochem, CA) for six days followed by additional three days incubation in DMEM/F12+1% B27 (Invitrogen, CA)+50 ng/ml Exendin-4 (Sigma, MO)+50 ng/ml IGF (Peprotech, N.J.)+50 ng/ml HGF (R&D Systems, MN). Some of the cultures were treated with 1 μM of the following compounds at either stage 3, stage 4, or stages 3+4: MEK/MAPK inhibitor (2′-Amino-3′-methoxyflavone) (PD98059, Calbiochem, CA), RAF kinase inhibitor (5-Iodo-3-R3,5-dibromo-4-hydroxyphenyl)methylenel-2-indolinone) (#553008, Calbiochem, CA), SMAD3 inhibitor (6,7-Dimethyl-2-((2E)-3-(1-methyl-2-phenyl-1Hpyrrolo[2,3-b]pyridin-3-yl-prop-2-enoyl))-1,2,3,4-tetrahydroisoquinoline) (#566405, Calbiochem, CA), AKT inhibitor (1L6-Hydroxymethyl-chiroinositol-2-(R)-2-O-methyl-3-O-octadecyl-sn-glycerocarbonate) (#124005, Calbiochem, CA), MEK inhibitor (#444937 Calbiochem, CA), and TGF-B receptor I inhibitor (2-(3-(6-Methylpyridin-2-yl)-1H-pyrazol-4-yl)-1,5-naphthyridine) (inhibits activin receptor-like kinase 5, #616452, Calbiochem, CA).
The source holds these as a separate data set.

Experiment [4] has the same test system. The experiment can be described thus: FACS analysis of insulin and synaptophysin in stage 6 cultures, Chordin instead of Noggin (Example 15). Type of experiment: cell-based. The settings on record: 50-100 ng/ml at stages 3-4 instead of Noggin, compared with Noggin. On the procedure: Cells were dissociated into single cells from monolayer cultures using TrypLE Express (Invitrogen, Carlsbad, Calif.) and washed in cold PBS. For fixation, cells were resuspended in 200-300 μl Cytofix/Cytoperm Buffer (BD 554722, BD, Ca) and incubated for 30 min at 4° C. Cells were washed two times in 1 ml Perm/Wash Buffer Solution (BD 554723) and resuspended in 100 μl staining/blocking solution containing 2% normal goat serum in Perm/Wash buffer. For flow cytometric analysis, cells were stained with the following primary antibodies: Anti-Insulin (Rabbit mAb, Cell Signaling No. C27C9; 1:100 dilution), Anti-Glucagon (Mouse Mab, Sigma No. G2654, 1:100); Anti-Synaptophysin (Rabbit Polyclonal antibody, DakoCytomation No A0010, 1:50); Cells were incubated for 30 min at 4° C. followed by two washes in Perm/Wash buffer and further 30 min incubation in appropriate secondary antibodies as follows: Goat anti-Rabbit Alexa 647 (Invitrogen No. A21246) or Goat anti-Mouse 647 (Invitrogen No. A21235); Goat anti-Rabbit R-PE (BioSource No. ALI4407). All secondary antibodies were used at 1:200 dilution. Cells were washed at least once in Perm/Wash buffer and analyzed using BD FACSArray. A least 10,000 events were acquired for analysis. Controls included undifferentiated H1 cells and b-TC (ATCC, VA) cell line. FIGS. 20A-20C show the percentage insulin positive and synapthophysin+ cells in stage 6 cultures. […]
On the technique in general: A flow cytometer gives signals particle by particle.

The mark [5] stands for this setting: 1 μM added at stage 4 or stages 4 and 5.
Where [6] appears, read: 1 μM added at stage 4 or stages 3 and 4.

For the molecule `Cc1cccc(-c2n[nH]cc2-c2ccc3ncccc3n2)n1` [ALK5 inhibitor II, 2-(3-(6-Methylpyridin-2-yl)-1H-pyrazol-4-yl)-1,5-naphthyridine], the “expression of PDX-1” value in experiment [1] (setting [5]) and in experiment [3] (setting [6]) was “marginally affecting” in each case. For the same molecule, the “expression of insulin, glucagon, NeuroD, and NKX2.2” value in experiment [1] (setting [5]) and in experiment [3] (setting [6]) was “significantly enhanced” throughout. In addition, the “expression of endocrine markers” value in experiment [1] (1 μM added only at stage 5) and in experiment [3] (1 μM added only at stage 3) was “marginally upregulated” throughout. The “expression of insulin, glucagon, PDX-1 and NeuroD” value in experiment [2] is listed as “significantly enhanced”.

B1: Chordin: known inhibitor of BMP signaling (R&D Systems) (protein, UniProt Q9H2X0 27-955, looked up)
Chordin: AGPEPPVLPIRSEKEPLPVRGAAGCTFGGKVYALDETWHPDLGEPFGVMRCVLCACEAPQWGRRTRGPGRVSCKNIKPECPTPACGQPRQLPGHCCQTCPQERSSSERQPSGLSFEYPRDPEHRSYSDRGEPGAEERARGDGHTDFVALLTGPRSQAVARARVSLLRSSLRFSISYRRLDRPTRIRFSDSNGSVLFEHPAAPTQDGLVCGVWRAVPRLSLRLLRAEQLHVALVTLTHPSGEVWGPLIRHRALAAETFSAILTLEGPPQQGVGGITLLTLSDTEDSLHFLLLFRGLLEPRSGGLTQVPLRLQILHQGQLLRELQANVSAQEPGFAEVLPNLTVQEMDWLVLGELQMALEWAGRPGLRISGHIAARKSCDVLQSVLCGADALIPVQTGAAGSASLTLLGNGSLIYQVQVVGTSSEVVAMTLETKPQRRDQRTVLCHMAGLQPGGHTAVGICPGLGARGAHMLLQNELFLNVGTKDFPDGELRGHVAALPYCGHSARHDTLPVPLAGALVLPPVKSQAAGHAWLSLDTHCHLHYEVLLAGLGGSEQGTVTAHLLGPPGTPGPRRLLKGFYGSEAQGVVKDLEPELLRHLAKGMASLMITTKGSPRGELRGQVHIANQCEVGGLRLEAAGAEGVRALGAPDTASAAPPVVPGLPALAPAKPGGPGRPRDPNTCFFEGQQRPHGARWAPNYDPLCSLCTCQRRTVICDPVVCPPPSCPHPVQAPDQCCPVCPEKQDVRDLPGLPRSRDPGEGCYFDGDRSWRAAGTRWHPVVPPFGLIKCAVCTCKGGTGEVHCEKVQCPRLACAQPVRVNPTDCCKQCPVGSGAHPQLGDPMQADGPRGCRFAGQWFPESQSWHPSVPPFGEMSCITCRCGAGVPHCERDDCSLPLSCGSGKESRCCSRCTAHRRPAPETRTDPELEKEAEGS
B1: in experiment [4], the “expression of insulin and synaptophysin by FACS” value is “very similar expression”.
